In brackets after ≈: the same amount, converted by molar mass.
Columns and labels:
[1] = tested on: Radical scavenging activity; assay: Antioxidant activity assessed as DPPH radical scavenging activity after 20 mins; format: functional
[2] = molecular target: Aldo-keto reductase family 1 member B1 (Homo sapiens, UniProt P15121); assay: Inhibition of cataracted human eye lens aldose reductase

IC50 [1]	IC50 [2]	SMILES
155.6 µg/mL (≈ 785 µM)	868 µM	COc1cc(C(=O)O)cc(OC)c1O [SYRINGIC ACID]
77.63 µg/mL (≈ 504 µM)	277 µM	O=C(O)c1ccc(O)c(O)c1 [PROTOCATECHUIC ACID]
176.5 µg/mL (≈ 1050 µM)		COc1cc(C(=O)O)ccc1O [VANILLIC ACID]
183.7 µg/mL (≈ 1330 µM)		O=C(O)c1ccc(O)cc1 [PARABEN]

Further lines, the compound ahead of its results:

SMILES	IC50 [1]	IC50 [2]
O=C(O)/C=C/c1ccc(O)cc1 [COUMARIC ACID]	112.01 µg/mL (≈ 682 µM)	989 µM
O=C(O)/C=C/c1ccccc1 [CINNAMIC ACID]	96.7 µg/mL (≈ 653 µM)	460 µM
COc1cc(/C=C/C(=O)O)ccc1O [FERULATE]	189.1 µg/mL (≈ 974 µM)	
O=C(O)c1cc(O)c(O)c(O)c1 [GALLIC ACID]	26.9 µg/mL (≈ 158 µM)	572 µM
O=c1c(O)c(-c2ccc(O)c(O)c2)oc2cc(O)cc(O)c12 [QUERCETIN]	56.8 µg/mL (≈ 188 µM)	
